How the values were obtained:
Assay type in all cases: biochemical
[1] = biological target: T1, recombinant human DAO (diamine oxidase) (Homo sapiens, UniProt P19801); experiment: Activity on recombinant human DAO, method similar to the VAP-1 assay; conditions: substrate 1 mM putrescine; read-out: Inhibitory Activity (IC50, nM) DAO
T1 construct: purchased R&D systems
T1 sequence (P19801 20-751): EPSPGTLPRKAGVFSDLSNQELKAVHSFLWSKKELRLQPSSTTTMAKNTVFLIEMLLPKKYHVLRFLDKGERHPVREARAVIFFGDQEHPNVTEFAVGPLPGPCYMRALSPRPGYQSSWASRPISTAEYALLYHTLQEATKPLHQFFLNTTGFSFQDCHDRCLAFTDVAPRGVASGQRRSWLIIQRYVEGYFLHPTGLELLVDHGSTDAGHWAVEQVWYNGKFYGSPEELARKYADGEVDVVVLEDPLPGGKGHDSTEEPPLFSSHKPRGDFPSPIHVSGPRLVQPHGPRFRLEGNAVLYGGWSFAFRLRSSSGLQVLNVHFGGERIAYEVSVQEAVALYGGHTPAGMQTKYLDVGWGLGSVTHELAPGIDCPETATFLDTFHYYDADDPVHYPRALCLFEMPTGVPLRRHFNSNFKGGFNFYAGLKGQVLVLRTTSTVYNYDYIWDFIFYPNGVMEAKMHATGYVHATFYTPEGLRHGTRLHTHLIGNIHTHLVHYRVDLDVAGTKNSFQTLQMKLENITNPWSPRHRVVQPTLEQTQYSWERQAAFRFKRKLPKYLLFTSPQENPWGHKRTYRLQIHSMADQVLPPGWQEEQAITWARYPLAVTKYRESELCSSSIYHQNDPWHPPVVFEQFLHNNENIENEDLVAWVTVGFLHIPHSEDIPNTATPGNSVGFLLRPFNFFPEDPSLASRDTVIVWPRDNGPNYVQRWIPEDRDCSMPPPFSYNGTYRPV
Outline: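 Inhibition of recombinant human diamine oxidase (DAO, R&D systems) was assessed by the same approach as the VAP-1 assay, using 1 mM putrescine as substrate. Hydrogen peroxide formed was detected through an HRP-coupled Amplex Red reaction yielding fluorescent resorufin, read at 544 nm excitation and 590 nm emission. IC50 values came from four-parameter logistic fitting in GraphPad Prism.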

[2] = biological target: T2, recombinant human MAO-B (monoamine oxidase-B) (Homo sapiens, UniProt P27338); experiment: Activity on recombinant human MAO-B, method similar to the VAP-1 assay; conditions: substrate 1 mM benzylamine; read-out: Inhibitory Activity (IC50, nM) MAO-B
T2 construct: purchased Sigma-Aldrich
T2 sequence (P27338 1-520): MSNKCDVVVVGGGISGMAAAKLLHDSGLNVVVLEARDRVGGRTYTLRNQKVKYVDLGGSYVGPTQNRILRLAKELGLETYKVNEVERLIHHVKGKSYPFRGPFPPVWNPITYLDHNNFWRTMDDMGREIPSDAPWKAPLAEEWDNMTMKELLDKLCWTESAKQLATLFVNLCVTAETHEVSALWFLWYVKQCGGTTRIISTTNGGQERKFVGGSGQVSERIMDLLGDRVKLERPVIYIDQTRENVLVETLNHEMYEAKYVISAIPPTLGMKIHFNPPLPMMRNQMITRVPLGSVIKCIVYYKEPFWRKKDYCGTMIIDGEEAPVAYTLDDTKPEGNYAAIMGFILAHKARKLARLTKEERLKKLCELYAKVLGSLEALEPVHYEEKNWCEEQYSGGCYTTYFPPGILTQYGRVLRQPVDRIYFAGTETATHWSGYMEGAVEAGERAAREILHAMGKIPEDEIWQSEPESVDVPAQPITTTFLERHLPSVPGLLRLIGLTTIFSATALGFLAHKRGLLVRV
Outline: (§1)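 Amplex Red/HRP coupled read-out of H2O2 with 0.5 mM tyramine for MAO-A or 1 mM benzylamine for MAO-B, following a 30-min compound–enzyme preincubation at 37° C. IC50 from percent inhibition of signal rate relative to uninhibited control.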

recombinant human VAP-1 = biological target: T3, recombinant human VAP-1 (Homo sapiens, UniProt Q16853); experiment: Activity on recombinant human VAP-1, HRP-coupled Amplex Red hydrogen peroxide assay; conditions: substrate 1 mM benzylamine; compound incubated with enzyme at 37° C. for 30 minutes; pH 7.4; read-out: Inhibitory Activity (IC50, nM) human VAP-1
T3 construct: purchased R&D systems
T3 sequence (Q16853 1-763): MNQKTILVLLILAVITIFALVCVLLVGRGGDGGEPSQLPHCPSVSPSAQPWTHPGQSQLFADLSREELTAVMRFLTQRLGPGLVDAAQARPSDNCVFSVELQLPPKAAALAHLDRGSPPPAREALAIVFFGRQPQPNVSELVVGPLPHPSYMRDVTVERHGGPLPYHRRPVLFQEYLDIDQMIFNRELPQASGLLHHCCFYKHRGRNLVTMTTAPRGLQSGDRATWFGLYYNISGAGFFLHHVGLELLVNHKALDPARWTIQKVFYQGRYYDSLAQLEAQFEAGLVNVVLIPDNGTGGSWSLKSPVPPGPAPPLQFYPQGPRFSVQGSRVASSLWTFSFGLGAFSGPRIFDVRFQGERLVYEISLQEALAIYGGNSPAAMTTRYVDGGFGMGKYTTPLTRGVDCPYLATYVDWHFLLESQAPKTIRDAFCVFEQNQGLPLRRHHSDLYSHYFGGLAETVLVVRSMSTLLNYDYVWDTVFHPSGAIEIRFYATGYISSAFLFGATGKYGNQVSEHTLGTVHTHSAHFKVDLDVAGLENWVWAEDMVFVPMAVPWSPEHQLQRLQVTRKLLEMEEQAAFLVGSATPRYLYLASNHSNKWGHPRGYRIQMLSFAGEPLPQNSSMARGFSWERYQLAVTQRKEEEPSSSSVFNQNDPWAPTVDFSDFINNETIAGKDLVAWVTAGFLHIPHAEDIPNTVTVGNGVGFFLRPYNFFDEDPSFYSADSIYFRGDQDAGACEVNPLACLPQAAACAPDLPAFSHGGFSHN
Outline: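 Dose-response IC50 determined from reduction in resorufin signal rate (544/590 nm, 1-2 h), with 30 min compound preincubation at 37 °C and 1 mM benzylamine as substrate.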

[3] = biological target: T4, recombinant human MAO-A (monoamine oxidase-A) (Homo sapiens, UniProt P21397); experiment: Activity on recombinant human MAO-A, method similar to the VAP-1 assay; conditions: substrate 0.5 mM tyramine; read-out: Inhibitory Activity (IC50, nM) MAO-A
T4 construct: purchased Sigma-Aldrich
T4 sequence (P21397 1-527): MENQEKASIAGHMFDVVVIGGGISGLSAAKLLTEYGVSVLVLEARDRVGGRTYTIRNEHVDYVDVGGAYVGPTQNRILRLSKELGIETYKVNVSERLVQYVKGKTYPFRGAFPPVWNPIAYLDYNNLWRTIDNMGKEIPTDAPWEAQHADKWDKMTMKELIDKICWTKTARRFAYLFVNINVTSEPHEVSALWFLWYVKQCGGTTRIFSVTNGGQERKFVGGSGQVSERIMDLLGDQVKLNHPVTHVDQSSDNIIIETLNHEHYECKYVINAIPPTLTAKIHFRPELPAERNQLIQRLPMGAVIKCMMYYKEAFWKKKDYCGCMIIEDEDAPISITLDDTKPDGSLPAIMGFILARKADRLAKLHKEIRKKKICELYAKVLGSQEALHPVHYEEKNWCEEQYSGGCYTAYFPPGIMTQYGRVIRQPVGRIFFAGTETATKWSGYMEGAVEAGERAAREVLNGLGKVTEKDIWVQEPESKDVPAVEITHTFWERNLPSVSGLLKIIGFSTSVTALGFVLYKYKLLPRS
Outline: as §1

IC50 [1]	IC50 [2]	IC50 (recombinant human VAP-1)	IC50 [3]	Structure (SMILES)
2000 nM	85 nM	1 nM	> 100000 nM	NC/C(=C\F)Cn1ncn(Cc2ccc(-c3ccc4c(c3)COC4)s2)c1=O [Example 193, 2-[(2E)-2-(aminomethyl)-3-fluoroprop-2-en-1-yl]-4-{[5-(1,3-dihydro-2-benzofuran-5-yl)thiophen-2-yl]methyl}-2,4-dihydro-3H-1,2,4-triazol-3-one]
1200 nM	1500 nM	1.6 nM	> 100000 nM	CCn1cc(-c2ccc(Cn3cnn(C/C(=C/F)CN)c3=O)s2)ccc1=O [Example 194, 5-[5-({1-[(2E)-2-(aminomethyl)-3-fluoroprop-2-en-1-yl]-5-oxo-1,5-dihydro-4H-1,2,4-triazol-4-yl}methyl)thiophen-2-yl]-1-ethylpyridin-2(1H)-one]
710 nM	2300 nM	1.6 nM	> 100000 nM	NC/C(=C\F)Cn1ncn(Cc2ccc(-c3ccc(=O)n(C4CC4)c3)s2)c1=O [Example 195, 5-[5-({1-[(2E)-2-(aminomethyl)-3-fluoroprop-2-en-1-yl]-5-oxo-1,5-dihydro-4H-1,2,4-triazol-4-yl}methyl)thiophen-2-yl]-1-cyclopropylpyridin-2(1H)-one]
230 nM	4700 nM	2.3 nM	> 100000 nM	CCS(=O)(=O)c1ccc(-c2ccc(Cn3cnn(C/C(=C/F)CN)c3=O)s2)cc1 [Example 196, 2-[(2E)-2-(aminomethyl)-3-fluoroprop-2-en-1-yl]-4-({5-[4-(ethylsulfonyl)phenyl]thiophen-2-yl}methyl)-2,4-dihydro-3H-1,2,4-triazol-3-one]
340 nM	2700 nM	2 nM	> 100000 nM	NC/C(=C\F)Cn1ncn(Cc2ccc(-c3ccc(S(=O)(=O)NC4CC4)cc3)s2)c1=O [Example 197, 4-[5-({1-[(2E)-2-(aminomethyl)-3-fluoroprop-2-en-1-yl]-5-oxo-1,5-dihydro-4H-1,2,4-triazol-4-yl}methyl)thiophen-2-yl]-N-cyclopropylbenzenesulfonamide]
1100 nM	> 100000 nM	8.8 nM	> 100000 nM	NC/C(=C\F)Cn1ncn(Cc2ccc(-c3ccc(N4CCNCC4)nc3)s2)c1=O [Example 199, 2-[(2E)-2-(aminomethyl)-3-fluoroprop-2-en-1-yl]-4-({5-[6-(piperazin-1-yl)pyridin-3-yl]thiophen-2-yl}methyl)-2,4-dihydro-3H-1,2,4-triazol-3-one]
450 nM	3000 nM	1.5 nM	> 100000 nM	CS(=O)(=O)c1ccc(-c2csc(Cn3cnn(C/C(=C/F)CN)c3=O)c2)cc1 [Example 201]
2800 nM	64 nM	3.8 nM	> 100000 nM	NC/C(=C\F)Cn1ncn(Cc2cc3cc(-c4ccc5c(c4)OCO5)ccc3s2)c1=O [Example 207, 2-[(2E)-2-(aminomethyl)-3-fluoroprop-2-en-1-yl]-4-{[5-(1,3-benzodioxol-5-yl)-1-benzothiophen-2-yl]methyl}-2,4-dihydro-3H-1,2,4-triazol-3-one]
780 nM	26000 nM	1.2 nM	> 100000 nM	CS(=O)(=O)c1ccc(-c2ccc3sc(Cn4cnn(C/C(=C/F)CN)c4=O)cc3c2)cc1 [Example 208, 2-[(2E)-2-(aminomethyl)-3-fluoroprop-2-en-1-yl]-4-({5-[4-(methylsulfonyl)phenyl]-1-benzothiophen-2-yl}methyl)-2,4-dihydro-3H-1,2,4-triazol-3-one]
1500 nM	990 nM	2.3 nM	> 100000 nM	NC/C(=C\F)Cn1ncn(Cc2cc3cc(-c4ccc(C(F)(F)F)nc4)ccc3s2)c1=O [Example 209, 2-[(2E)-2-(aminomethyl)-3-fluoroprop-2-en-1-yl]-4-({5-[6-(trifluoromethyl)pyridin-3-yl]-1-benzothiophen-2-yl}methyl)-2,4-dihydro-3H-1,2,4-triazol-3-one]
590 nM	9200 nM	1.7 nM	> 100000 nM	Cc1cc(-c2ccc3sc(Cn4cnn(C/C(=C/F)CN)c4=O)cc3c2)cc2c1NC(=O)CC2 [Example 210, 6-[2-({1-[(2E)-2-(aminomethyl)-3-fluoroprop-2-en-1-yl]-5-oxo-1,5-dihydro-4H-1,2,4-triazol-4-yl}methyl)-1-benzothiophen-5-yl]-8-methyl-3,4-dihydroquinolin-2(1H)-one]
1000 nM	7900 nM	1.9 nM	49000 nM	CN1C(=O)CCc2cc(-c3ccc4sc(Cn5cnn(C/C(=C/F)CN)c5=O)cc4c3)ccc21 [Example 211, 6-[2-({1-[(2E)-2-(aminomethyl)-3-fluoroprop-2-en-1-yl]-5-oxo-1,5-dihydro-4H-1,2,4-triazol-4-yl}methyl)-1-benzothiophen-5-yl]-1-methyl-3,4-dihydroquinolin-2(1H)-one]

Reference: patent US11780830B2, “Triazolone derivatives or salts thereof and pharmaceutical compositions comprising the same” (YUHAN CORPORATION, priority 2018, dated 2023)
